Values of other authors as cited in patent US10640746B2, “Synthetic methylotrophs” (UNIVERSITY OF DELAWARE, priority 2016, dated 2020).

Assays:
Conditions in all cases: in vitro
[1] = tested on: Bacillus methanolicus MGA3 (Bme) methanol dehydrogenase 3 (Bme Mdh3, BmMdh3)
[2] = tested on: Bacillus stearothermophilus 2334 (Bst) methanol dehydrogenase (Bst Mdh, BsMdh)
[3] = tested on: Corynebacterium glutamicum R (Cgl R) alcohol dehydrogenase A (Cgl AdhA, CgAdhA; GenBank BAF55711.1; SEQ ID NO: 1)

Row | Compound | Vmax [1] [µmol/min/mg] | Km [2] [mM] | Km [3] [mM] | Vmax [3] [µmol/min/mg] | Vmax [2] [µmol/min/mg]
1 | CCCO [n-PrOH, propanol] | 3.5 | 0.02 | 7.5 | 7.7 | –
2 | CO [MeOH, methanol] | 0.07 | 20 | 3 | 0.7 | 2.1
3 | CCCCO [n-BuOH, n-butanol] | 2.3 | 0.01 | 35 | 8.9 | –
4 | CCO [EtOH, ethanol] | 2 | 0.08 | 6.8 | 7.8 | –
